Reference: patent publication US7732603B2, “Organic compounds as agents for the treatment of aldosterone mediated conditions” (Novartis AG, priority 2002, dated 2010)
pIC50: −log10 of the molar value.

What was measured:
aldosterone synthase = biological target: T1, aldosterone synthase (Rattus norvegicus, UniProt P30099); experiment: aldosterone synthase inhibitory activity in vitro (rat adrenal glomerulosa homogenate, conversion of [3H]corticosterone); type: biochemical; conditions: read-out: inhibit the aldosterone synthase activity with an IC50 value
T1 construct: The adrenals are decapsulated to obtain the glomerulosa tissue; The tissue is homogenized in a glass homogenizer; from tissue; host or cells: rat adrenal glomerulosa tissue homogenate (900 x g supernatant), sodium-depleted Sprague-Dawley rats
T1 sequence (P30099 35-510): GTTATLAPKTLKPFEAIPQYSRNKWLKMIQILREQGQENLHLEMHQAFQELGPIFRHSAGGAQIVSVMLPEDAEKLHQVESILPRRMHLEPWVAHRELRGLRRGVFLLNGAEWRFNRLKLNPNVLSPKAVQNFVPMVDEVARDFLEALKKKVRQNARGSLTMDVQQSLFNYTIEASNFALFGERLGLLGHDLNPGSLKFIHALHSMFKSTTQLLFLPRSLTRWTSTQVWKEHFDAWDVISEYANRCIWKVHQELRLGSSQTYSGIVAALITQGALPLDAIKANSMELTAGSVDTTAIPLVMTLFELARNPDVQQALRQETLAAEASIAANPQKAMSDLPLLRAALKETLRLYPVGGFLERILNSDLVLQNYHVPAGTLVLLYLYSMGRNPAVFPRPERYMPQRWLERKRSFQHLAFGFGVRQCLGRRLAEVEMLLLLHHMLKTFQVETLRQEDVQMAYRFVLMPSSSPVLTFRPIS
From the text: The aldosterone synthase inhibitory activity in vitro may be determined as follows:
Adult male Sprague-Dawley rats weighing 125-150 g are obtained from Harlan Farms. All animals are caged in pairs and maintained under standard conditions of light and temperature. The animals are placed on a sodium depleted diet (0.01-0.02%) from Harland Teklad, Madison Wis. (cat# TD90228) and maintained on normal drinking water ad libitum. The animals are maintained on this diet for two to four weeks prior to harvesting the adrenal glomerulosa cells. The rats are killed by CO2 inhalation, and the adrenals are immediately removed and placed in the same ice-cold buffer used during homogenization and assay of the enzyme preparation. The adrenals are decapsulated to obtain the glomerulosa tissue. The tissue is homogenized in a glass homogenizer containing Tris assay buffer (8.5 mM MgCl2, 2.7 mM CaCl2, 3.13 mM KCl, 7.59 mM NaCl, 0.1% TEA and 50 mM Tris HCl adjusted to pH 7.4). The homogenate is diluted so that 37.5 mg of glomerulosa tissue is in each mL of buffer. […] The plates are scanned for radioactivity with a Bioscan System 200 Imaging Scanner (Bioscan, Ish. DC). The two products of the aldosterone synthase, 18-OH-corticosterone and aldosterone are scraped and counted in a liquid scintillation counter (Beckman LS6000TA, Beckman Instr., Palo Alto, Calif.).
The IC50s are determined from a logit-log plot (pseudo-Hill plot) according to the equation (see Pratt and Taylor, Eds, “Principles of Drug Action”, Churchill Livingstone Inc, NY (1990)): log P/(100−P)=n log[I][…] where P is the percent competition of specific binding in the presence of a given concentration of inhibitor (I). The slope (Hill Coefficient) and x intercept (IC50) are determined by linear regression of the experimental data. The Km(app) is calculated by a computer program according to the Hanes equation (see Cornish-Bowden, Ed., “Principles of Enzyme Kinetics”, Butterworth & Co., Boston, Mass. (1976)): s/v=Km/V+s/V where Km=Michaelis constant, V=maximum velocity, s=substrate concentration, v=velocity.

pIC50 (aldosterone synthase)	melting point [°C]	Structure (SMILES)
~7.92	146 to 147	N#Cc1ccc(C2C(=O)N(CC3CC3)Cc3cncn32)cc1 (stereo not drawn) [Example 1, 4-(7-Cyclopropylmethyl-6-oxo-5,6,7,8-tetrahydro-imidazo[1,5-a]pyrazin-5-yl)-benzonitrile]
~8.40	163 to 165	N#Cc1ccc(C2C(=O)N(Cc3ccccc3)Cc3cncn32)cc1 (stereo not drawn) [Example 3, 4-(7-Benzyl-6-oxo-5,6,7,8-tetrahydro-imidazo[1,5-a]pyrazin-5-yl)-benzonitrile]
~8.05	249 to 250	Cl.O=C1C(c2cccc(Br)c2)n2cncc2CN1CC1CC1 (stereo not drawn) [Example 32, 5-(3-Bromo-phenyl)-7-cyclopropylmethyl-7,8-dihydro-imidazo[1,5-a]pyrazin-6-one hydrochloride]
	162 to 164	COc1ccc(CN2Cc3cncn3C(c3ccc(-c4ccsc4)cc3)C2=O)cc1 (stereo not drawn) [Example 75, 7-(4-Methoxy-benzyl)-5-(4-thiophen3-yl-phenyl)-7,8-dihydro-imidazo[1,5-a]pyrazin-6-one]
	189 to 190	O=C1C(c2ccc(-c3ccccc3)cc2)n2cncc2CN1Cc1ccc(F)cc1 (stereo not drawn) [Example 78, 5-Biphenyl-4-yl-7-(4-fluoro-benzyl)-7,8-dihydro-imidazo[1,5-a]pyrazin-6-one]
	66 to 70	CC1(c2ccc(C#N)cc2)C(=O)N(Cc2ccc(F)cc2)Cc2cncn21 (stereo not drawn) [Example 85, 4-[7-(4-Fluoro-benzyl)-5-methyl-6-oxo-5,6,7,8-tetrahydro-imidazo[1,5-a]pyrazin-5-yl]-benzonitrile]
	78 to 82	C[C@@H](c1ccc(F)cc1)N1Cc2cncn2C(C)(c2ccc(C#N)cc2)C1=O (stereo partly drawn) [Example 86, 4(7-[(s)-1-(4-Fluoro-phenyl)-ethyl]-5-methyl-6-oxo-5,6,7,8-tetrahydro-imidazo[1,5-a]pyrazin-5-yl]-benzonitrile]
	166 to 168	O=C1N(Cc2ccc(F)cc2)Cc2cncn2C1(Cc1ccccc1)c1ccc(Br)cc1 (stereo not drawn) [Example 87, 5-Benzyl-5-(4-bromo-phenyl)-7-(4-fluoro-benzyl)-7,8-dihydro-imidazo[1,5-a]pyrazin-6-one]
	246 to 248	N#Cc1ccc(C2(Cc3ccccc3)C(=O)N(Cc3ccccc3)Cc3cncn32)cc1 (stereo not drawn) [Example 88, 4-(5,7-Dibenzyl-6-oxo-5,6,7,8-tetrahydro-imidazol[1,5-a]pyrazin-5-yl)-benzonitrile]
	156 to 158	N#Cc1ccc(C2(Cc3ccccc3)C(=O)N(CC3CC3)Cc3cncn32)cc1 (stereo not drawn) [Example 89, 4-(5-Benzyl-7-cyclopropylmethyl-6-oxo-5,6,7,8-tetrahydro-imidazo[1,5-a]pyrazin-5-yl)-benzonitrile]
	65	N#Cc1ccc(C2CC(=O)N(Cc3ccccc3)Cc3cncn32)cc1 (stereo not drawn) [Example 92, 4-(8-Benzyl-7-oxo-6,7,8,9-tetrahydro-5H-imidazo[1,5-a][1,4]diazepin-5-yl)-benzonitrile]
	178 to 180	N#Cc1ccc(C2CC(=O)N(CC3CC3)Cc3cncn32)cc1 (stereo not drawn) [Example 93, 4-(8-Cyclopropylmethyl-7-oxo-6,7,8,9-tetrahydro-5H-imidazo[1,5-a][1,4]diazepin-5-yl)-benzonitrile]
